Test results reported in patent US10202378B2, “Therapeutic compounds and uses thereof” (GENENTECH, INC., priority 2015, dated 2019).
pIC50: −log10 of the molar value.

Key:
[1] = biological target: TAF1-BD1 (Homo sapiens, UniProt P21675); experiment: TAF1-BD1 TR-FRET Binding Assay; details: read-out: TAF1-BD1 HTRF IC50
Procedure: IC50 Measurements for Inhibitors Using TAF1-BD1 TR-FRET Binding Assay
His/Flag epitope tagged TAF1-BD11381-1497 was cloned, expressed, and purified to homogeneity. TAF1-BD binding and inhibition was assessed by monitoring the engagement of a biotinylated small molecule compound 1000 with the target using the TR-FRET assay technology (Perkin-Elmer). Specifically, in a 384 well ProxiPlate, TAF1-BDI (0.08 uM final) in 50 mM HEPES (pH 7.5; final), 50 mM NaCl (final), 1 mM TCEP (final), 0.1 mg/mL BSA (final), and 0.069 mM Brij-35 (final) was added either in the presence of DMSO (final 0.2% DMSO) or compound dilution series in DMSO. After a 10 minute incubation at room temperature, biotin-ligand (0.08 uM final) was added. After 10 minutes incubation at room temperature, a mixture Eu-W1024 Anti-6×His antibody (Perkin Elmer ADO 110) and SureLight™ Streptavidin-Allophycocyanin (SA-APC, Perkin Elmer CR130-100) were added to final concentrations of 0.2 nM antibody and 0.05 uM SA-APC, respectively. After forty minutes of equilibration at room temperature, the plates were read on an Envision instrument and IC50s calculated using a four parameter logistic model (XLFIT).

[2] = biological target: TAF1-BD2 (Homo sapiens, UniProt P21675); experiment: TAF1-BD2 TR-FRET Binding Assay; details: read-out: TAF1-BD2 HTRF IC50
Procedure: IC50 Measurements for Inhibitors Using TAF1-BD2 TR-FRET Binding Assay
His/Flag epitope tagged TAF1-BD21504-1635 was cloned, expressed, and purified to homogeneity. TAF1-BD2 binding and inhibition was assessed by monitoring the engagement of a biotinylated small molecule compound 1000 with the target using the TR-FRET assay technology (Perkin-Elmer). Specifically, in a 384 well ProxiPlate, TAF1-BD2 (0.012 uM final) in 50 mM HEPES (pH 7.5; final), 50 mM NaCl (final), 1 mM TCEP (final), 0.1 mg/mL BSA (final), and 0.069 mM Brij-35 (final) was added either in the presence of DMSO (final 0.2% DMSO) or compound dilution series in DMSO. After a 10 minute incubation at room temperature, biotin-ligand (0.04 uM final) was added. After 10 minutes incubation at room temperature, a mixture Eu-W1024 Anti-6×His antibody (Perkin Elmer AD0110) and SureLight™ Streptavidin-Allophycocyanin (SA-APC, Perkin Elmer CR130-100) were added to a final concentration of 0.2 nM antibody and 0.025 uM SA-APC, respectively. After forty minutes of equilibration at room temperature, the plates were read on an Envision instrument and IC50s calculated using a four parameter logistic model (XLFIT).

Compound | pIC50 [1] | pIC50 [2]
Cc1[nH]c2c(=O)n(C)cc(C#CC(C)(O)C3CC3)c2c1C(=O)OC(C)(C)CC#N (centres unmarked) [Example 134, (2-cyano-1,1-dimethyl-ethyl)-4-(3-cyclopropyl-3-hydroxy-but-1-ynyl)-2,6-dimethyl-7-oxo-1H-pyrrolo[2,3-c]pyridine-3-carboxylate] | 6.65 | 7.57
Cc1[nH]c2c(=O)n(C)cc(C#CC(C)(O)C3CC3)c2c1C(=O)OC(C)C(C)C (centres unmarked) [Example 141, 1,2-dimethylpropyl 4-(3-cyclopropyl-3-hydroxy-but-1-ynyl)-2,6-dimethyl-7-oxo-1H-pyrrolo[2,3-c]pyridine-3-carboxylate] | 6.61 | 7.12
CCOC(=O)c1c(C)[nH]c2c(=O)n(C)cc(C#CC3CCCCC3)c12 [Example 79, ethyl 4-(2-cyclohexylethynyl)-2,6-dimethyl-7-oxo-1H-pyrrolo[2,3-c]pyridine-3-carboxylate] | 5.88 | 6.23
Cc1[nH]c2c(=O)n(C)cc(C#CC(C)(C)O)c2c1C(=O)OCc1ccccc1F [Example 119, (2-fluorophenyl)methyl 4-(3-hydroxy-3-methyl-but-1-ynyl)-2,6-dimethyl-7-oxo-1H-pyrrolo[2,3-c]pyridine-3-carboxylate] | 6.84 | 7.57
Cc1cc([C@](C)(O)C#Cc2cn(C)c(=O)c3[nH]c(C)c(-c4nnc(C5CC5)o4)c23)no1 [Example 190, 3-(5-cyclopropyl-1,3,4-oxadiazol-2-yl)-4-[(3R)-3-hydroxy-3-(5-methylisoxazol-3-yl)but-1-ynyl]-2,6-dimethyl-1H-pyrrolo[2,3-c]pyridin-7-one] | 6.62 | 7.30
Cc1[nH]c2c(=O)n(C)cc(C#CC(C)(O)C3CC3)c2c1C(=O)OCc1nccs1 (centres unmarked) [Example 109, thiazol-2-ylmethyl 4-(3-cyclopropyl-3-hydroxy-but-1-ynyl)-2,6-dimethyl-7-oxo-1H-pyrrolo[2,3-c]pyridine-3-carboxylate] | 6.65 | 7.17
C=CCCn1cc(C#CC(C)(C)CO)c2c(C(=O)OCC)c(C)[nH]c2c1=O [Example 47, ethyl 6-but-3-enyl-4-(4-hydroxy-3,3-dimethyl-but-1-ynyl)-2-methyl-7-oxo-1H-pyrrolo[2,3-c]pyridine-3-carboxylate] | 5.31 | 6.43
CCOC(=O)c1c(C)[nH]c2c(=O)n(C)cc(C#CC(C)(O)c3cccnc3)c12 (centres unmarked) [Example 28, ethyl 4-[3-hydroxy-3-(3-pyridyl)but-1-ynyl]-2,6-dimethyl-7-oxo-1H-pyrrolo[2,3-c]pyridine-3-carboxylate] | 6.63 | 7.28
CCOC(=O)c1c(C)[nH]c2c(=O)n(C)cc(C#CC(O)(c3cccc(-c4cn[nH]c4)c3)C(F)(F)F)c12 (centres unmarked) [Example 41, ethyl 2,6-dimethyl-7-oxo-4-[4,4,4-trifluoro-3-hydroxy-3-[3-(1H-pyrazol-4-yl)phenyl]but-1-ynyl]-1H-pyrrolo[2,3-c]pyridine-3-carboxylate] | 6.77 | 7.67
CCOC(=O)c1c(C)[nH]c2c(=O)n(C)cc(C#CC(C)(C)OCc3ccccc3)c12 [Example 25, ethyl 4-(3-benzyloxy-3-methyl-but-1-ynyl)-2,6-dimethyl-7-oxo-1H-pyrrolo[2,3-c]pyridine-3-carboxylate] | 6.07 | 6.43
C=CCCn1cc(C#C[C@@](C)(O)c2cc(C)on2)c2c(C(=O)OCc3ccccc3C)c(C)[nH]c2c1=O [Example 123, o-tolylmethyl 6-but-3-enyl-4-[(3R)-3-hydroxy-3-(5-methylisoxazol-3-yl)but-1-ynyl]-2-methyl-7-oxo-1H-pyrrolo[2,3-c]pyridine-3-carboxylate] | < 4.70 | 6.61
CCOC(=O)c1c(C)[nH]c2c(=O)n(C)cc(C#CC(O)(c3cccc(-c4cc[nH]n4)c3)C(F)(F)F)c12 (centres unmarked) [Example 44, ethyl 2,6-dimethyl-7-oxo-4-[4,4,4-trifluoro-3-hydroxy-3-[3-(1H-pyrazol-3-yl)phenyl]but-1-ynyl]-1H-pyrrolo[2,3-c]pyridine-3-carboxylate] | 6.65 | 7.77
CCOC(=O)c1c(C)[nH]c2c(=O)n(C)cc(C#Cc3cccc(O)c3)c12 [Example 63, ethyl 4-[2-(3-hydroxyphenyl)ethynyl]-2,6-dimethyl-7-oxo-1H-pyrrolo[2,3-c]pyridine-3-carboxylate] | 6.71 | 7.41
CCOC(=O)c1c(C)[nH]c2c(=O)n(C)cc(C#CC3(C)COC3)c12 [Example 13, ethyl 2,6-dimethyl-4-[2-(3-methyloxetan-3-yl)ethynyl]-7-oxo-1H-pyrrolo[2,3-c]pyridine-3-carboxylate] | 6.36 | 6.42

Further compounds by rising pIC50 [1], results first:

pIC50 [1] | pIC50 [2] | Compound
5.44 | 6.46 | Cc1[nH]c2c(=O)n(C)cc(C#CC(C)(C)O)c2c1C(=O)NC(C)(C)C [Example 170, N-tert-butyl-4-(3-hydroxy-3-methyl-but-1-ynyl)-2,6-dimethyl-7-oxo-1H-pyrrolo[2,3-c]pyridine-3-carboxamide]
5.49 | 5.92 | Cc1[nH]c2c(=O)n(C)cc(C#CC(O)(c3ccccc3)C(F)(F)F)c2c1C(=O)OC(C)c1ccccc1 (centres unmarked) [Example 104, 1-phenylethyl 2,6-dimethyl-7-oxo-4-(4,4,4-trifluoro-3-hydroxy-3-phenyl-but-1-ynyl)-1H-pyrrolo[2,3-c]pyridine-3-carboxylate]
5.69 | 6.68 | CCOC(=O)c1c(C)[nH]c2c(=O)n(C)cc(C#CC3(O)CCN(C)C3=O)c12 (centres unmarked) [Example 74, ethyl 4-[2-(3-hydroxy-1-methyl-2-oxo-pyrrolidin-3-yl)ethynyl]-2,6-dimethyl-7-oxo-1H-pyrrolo[2,3-c]pyridine-3-carboxylate]
5.99 | 6.83 | Cc1[nH]c2c(=O)n(C)cc(C#CC(C)(O)C3CC3)c2c1C1=NCC(C)(C)O1 (centres unmarked) [Example 204, 4-(3-cyclopropyl-3-hydroxy-but-1-ynyl)-3-(5,5-dimethyl-4H-oxazol-2-yl)-2,6-dimethyl-1H-pyrrolo[2,3-c]pyridin-7-one]
6.13 | 6.69 | CCOC(=O)c1c(C)[nH]c2c(=O)n(C)cc(C#CC(O)(c3ccccc3)C(F)(F)F)c12 (single isomer, unassigned) [Example 91a, ethyl 2,6-dimethyl-7-oxo-4-(4,4,4-trifluoro-3-hydroxy-3-phenyl-but-1-ynyl)-1H-pyrrolo[2,3-c]pyridine-3-carboxylate]
6.27 | 6.86 | CCOC(=O)c1c(C)[nH]c2c(=O)n(C)cc(C#CC(O)(CC)CC)c12 [Example 24, ethyl 4-(3-ethyl-3-hydroxy-pent-1-ynyl)-2,6-dimethyl-7-oxo-1H-pyrrolo[2,3-c]pyridine-3-carboxylate]
6.29 | 7.08 | CCOC(=O)c1c(C)[nH]c2c(=O)n(C)cc(C#CC(C)(O)C(C)C)c12 (centres unmarked) [Example 70, ethyl 4-(3-hydroxy-3,4-dimethyl-pent-1-ynyl)-2,6-dimethyl-7-oxo-1H-pyrrolo[2,3-c]pyridine-3-carboxylate]
6.36 | 7.10 | CCOC(=O)c1c(C)[nH]c2c(=O)n(C)cc(C#CC(O)(c3cccc(N4CCOCC4)c3)C(F)(F)F)c12 (centres unmarked) [Example 208, ethyl 2,6-dimethyl-7-oxo-4-[4,4,4-trifluoro-3-hydroxy-3-(3-morpholinophenyl)but-1-ynyl]-1H-pyrrolo[2,3-c]pyridine-3-carboxylate]
6.39 | 7.21 | CCOC(=O)c1c(C)[nH]c2c(=O)n(C)cc(C#CC3(O)CCC3)c12 [Example 21, ethyl 4-[2-(1-hydroxycyclobutyl)ethynyl]-2,6-dimethyl-7-oxo-1H-pyrrolo[2,3-c]pyridine-3-carboxylate]
6.46 | 6.72 | CCOC(=O)c1c(C)[nH]c2c(=O)n(C)cc(C#CC(C)(C)CO)c12 [Example 15, ethyl 4-(4-hydroxy-3,3-dimethyl-but-1-ynyl)-2,6-dimethyl-7-oxo-1H-pyrrolo[2,3-c]pyridine-3-carboxylate]
7.03 | 7.46 | Cc1[nH]c2c(=O)n(C)cc(C#CC(C)(O)C3CC3)c2c1C(=O)OCc1cccc2cccnc12 (centres unmarked) [Example 105, 8-quinolylmethyl 4-(3-cyclopropyl-3-hydroxy-but-1-ynyl)-2,6-dimethyl-7-oxo-1H-pyrrolo[2,3-c]pyridine-3-carboxylate]
